# According to patent US11827657B2, “Boron containing pyrazole compounds, compositions comprising them, methods and uses thereof” (BOEHRINGER INGELHEIM ANIMAL HEALTH USA INC., priority 2020, dated 2023):
# Molecular target: JAK1 (Homo sapiens, UniProt P23458)
# Assay: Biochemical Kinase Assay (JAK), 33P-ATP filter-binding
# Settings: Biochemical Kinase Inhibition Assay; potency level of IC50; read-out: JAK1 (range)
# Method: Biochemical Kinase Assay Protocol (JAK) • Reagent: Base Reaction buffer; 20 mM Hepes (pH 7.5), 10 mM MgCl2, 1 mM EGTA, 0.02% Brij™ 35, 0.02 mg/ml BSA, 0.1 mM Na3VO4, 2 mM DTT, 1% DMSO, where required cofactors were added individually to each kinase reaction.
# Reaction Procedure: • 1. Prepared indicated substrate in freshly prepared Base Reaction Buffer • 2. Delivered any required cofactors to the substrate solution above • 3. Delivered indicated kinase into the substrate solution and gently mix • 4. Delivered compounds in DMSO into the kinase reaction mixture by Acoustic technology (Echo550; nanoliter range), incubated for 20 minutes at room temperature • 5. Delivered 33P-ATP into the reaction mixture to initiate the reaction. • 6. Incubated kinase reaction for 2 hours at room temperature • 7. Reactions were spotted onto P81 ion exchange paper • 8. Detected kinase activity by filter-binding method.
# Compounds according to the present invention were tested in the Biochemical Kinase Assay Protocol. The results are provided below in Table 1, wherein the potency levels A, B, and C in the columns labeled JAK1 (range) correspond to IC50 as follows: A<10 nM; B=10-50 nM and C>50 nM. The Example Number entries formatted ##a represent stereoisomer one and entries formatted ##b represent stereoisomer two.
# JAK1, sequence (P23458 whole entry, species assumed): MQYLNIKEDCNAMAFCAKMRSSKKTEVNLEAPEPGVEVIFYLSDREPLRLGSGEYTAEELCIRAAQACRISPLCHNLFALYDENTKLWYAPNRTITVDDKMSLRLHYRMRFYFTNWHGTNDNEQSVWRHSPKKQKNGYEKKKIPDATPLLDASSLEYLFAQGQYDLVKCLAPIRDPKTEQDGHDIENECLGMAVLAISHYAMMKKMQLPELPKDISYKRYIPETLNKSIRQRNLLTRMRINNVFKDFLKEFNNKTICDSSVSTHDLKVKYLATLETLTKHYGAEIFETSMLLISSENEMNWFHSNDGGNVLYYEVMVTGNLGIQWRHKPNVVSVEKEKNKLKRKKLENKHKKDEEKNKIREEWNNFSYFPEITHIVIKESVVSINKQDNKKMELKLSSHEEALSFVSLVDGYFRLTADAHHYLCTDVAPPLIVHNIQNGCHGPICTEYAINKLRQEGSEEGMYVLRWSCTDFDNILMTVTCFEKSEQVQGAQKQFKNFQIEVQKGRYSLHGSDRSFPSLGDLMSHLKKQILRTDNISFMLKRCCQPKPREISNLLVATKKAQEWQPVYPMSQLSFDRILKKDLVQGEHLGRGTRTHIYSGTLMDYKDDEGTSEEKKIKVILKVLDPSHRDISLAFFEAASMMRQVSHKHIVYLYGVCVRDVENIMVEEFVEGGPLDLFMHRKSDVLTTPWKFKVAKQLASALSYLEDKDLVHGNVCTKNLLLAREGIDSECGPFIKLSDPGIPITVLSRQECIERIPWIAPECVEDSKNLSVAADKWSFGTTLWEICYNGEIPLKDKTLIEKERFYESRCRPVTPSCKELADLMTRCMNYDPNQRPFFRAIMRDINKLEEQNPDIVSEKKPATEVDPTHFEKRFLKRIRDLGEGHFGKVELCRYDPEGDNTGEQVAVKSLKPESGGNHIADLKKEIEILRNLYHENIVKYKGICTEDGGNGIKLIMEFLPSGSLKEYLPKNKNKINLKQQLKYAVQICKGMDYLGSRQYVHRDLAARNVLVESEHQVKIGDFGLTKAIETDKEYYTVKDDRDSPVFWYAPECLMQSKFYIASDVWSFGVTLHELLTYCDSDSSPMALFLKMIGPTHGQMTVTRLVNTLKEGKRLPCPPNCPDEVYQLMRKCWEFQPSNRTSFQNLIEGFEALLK
row,IC50 [nM],Structure (SMILES)
1,< 10,"CC(C)(C)C1=Cc2cc(Nc3nn([C@@H]4CCCC[C@H]4C#N)cc3C(N)=O)ccc2OB1O (relative stereo) [Example 21, 3-[(3-tert-butyl-2-hydroxy-1,2-benzoxaborinin-6-yl)amino]-1-(trans-2-cyanocyclohexyl)pyrazole-4-carboxamide]"
2,< 10,"N#C[C@@H]1CCOC[C@H]1n1cc(C(N)=O)c(Nc2ccc3c(c2)C=C(CCO)B(O)O3)n1 (relative stereo) [Example 22, 1-[trans-4-cyanooxan-3-yl]-3-{[2-hydroxy-3-(2-hydroxyethyl)-2H-1,2-benzoxaborinin-6-yl]amino}-1H-pyrazole-4-carboxamide]"
3,10 to 50,"CC1=C(C)c2cc(Nc3nn([C@@H]4CCC[C@H]4C#N)cc3C(N)=O)cc(C)c2OB1O (relative stereo) [Example 24, 1-(trans-2-cyanocyclopentyl)-3-[(2-hydroxy-3,4,8-trimethyl-1,2-benzoxaborinin-6-yl)amino]pyrazole-4-carboxamide]"
4,10 to 50,"CC1=C(C)c2cc(Nc3nn([C@@H]4CCCC[C@H]4C#N)cc3C(N)=O)cc(C)c2OB1O (relative stereo) [Example 25, 1-(trans-2-cyanocyclohexyl)-3-[(2-hydroxy-3,4,8-trimethyl-1,2-benzoxaborinin-6-yl)amino]pyrazole-4-carboxamide]"
5,< 10,"CC1=Cc2cc(Nc3nn([C@@H]4CCCC[C@H]4C#N)cc3C(N)=O)ccc2OB1O (relative stereo) [Example 26, 1-[trans-2-cyanocyclohexyl]-3-[(2-hydroxy-3-methyl-1,2-benzoxaborinin-6-yl)amino]pyrazole-4-carboxamide]"
6,10 to 50,"N#C[C@@H]1CCOC[C@H]1n1cc(C(N)=O)c(Nc2cc3c(cc2F)OB(O)C=C3)n1 (relative stereo) [Example 29, 1-(trans-4-cyanotetrahydro-2H-pyran-3-yl)-3-[(7-fluoro-2-hydroxy-1,2-benzoxaborinin-6-yl)amino]pyrazole-4-carboxamide]"
7,< 10,"Cc1cc(Nc2nn([C@@H]3CCC[C@H]3C#N)cc2C(N)=O)cc2c1OB(O)C=C2 (relative stereo) [Example 31, 1-(trans-2-cyanocyclopentyl)-3-[(2-hydroxy-8-methyl-1,2-benzoxaborinin-6-yl)amino]pyrazole-4-carboxamide]"
8,< 10,"CC1=Cc2cc(Nc3nn([C@@H]4COCC[C@H]4C#N)cc3C(N)=O)cc(C)c2OB1O (relative stereo) [Example 32, 1-[trans-4-cyanotetrahydro-2H-pyran-3-yl]-3-[(2-hydroxy-3,8-dimethyl-1,2-benzoxaborinin-6-yl)amino]pyrazole-4-carboxamide]"
9,< 10,"CCC1=CB(O)Oc2ccc(Nc3nn([C@@H]4COCC[C@H]4C#N)cc3C(N)=O)cc21 (relative stereo) [Example 33, 1-(trans-4-cyanotetrahydro-2H-pyran-3-yl)-3-[(4-ethyl-2-hydroxy-1,2-benzoxaborinin-6-yl)amino]pyrazole-4-carboxamide]"
10,10 to 50,"CC(C)C1=CB(O)Oc2ccc(Nc3nn([C@@H]4CCCC[C@H]4C#N)cc3C(N)=O)cc21 (relative stereo) [Example 34, 1-(trans-2-cyanocyclohexyl)-3-[(2-hydroxy-4-isopropyl-1,2-benzoxaborinin-6-yl)amino]pyrazole-4-carboxamide]"
11,10 to 50,"CC(C)C1=CB(O)Oc2ccc(Nc3nn([C@@H]4CCC[C@H]4C#N)cc3C(N)=O)cc21 (relative stereo) [Example 35, 1-(trans-2-cyanocyclopentyl)-3-[(2-hydroxy-4-isopropyl-1,2-benzoxaborinin-6-yl)amino]pyrazole-4-carboxamide]"
12,< 10,"CCC1=C(CC)c2cc(Nc3nn([C@@H]4COCC[C@H]4C#N)cc3C(N)=O)ccc2OB1O (relative stereo) [Example 39, 1-(trans-4-cyanotetrahydro-2H-pyran-3-yl)-3-[(3,4-diethyl-2-hydroxy-1,2-benzoxaborinin-6-yl)amino]pyrazole-4-carboxamide]"
13,10 to 50,"CCC1=C(CC)c2cc(Nc3nn([C@@H]4CCC[C@H]4C#N)cc3C(N)=O)ccc2OB1O (relative stereo) [Example 40, 1-(trans-2-cyanocyclopentyl)-3-[(3,4-diethyl-2-hydroxy-1,2-benzoxaborinin-6-yl)amino]pyrazole-4-carboxamide]"
14,< 10,"CC(C)C1=Cc2cc(Nc3nn([C@@H]4CCCC[C@H]4C#N)cc3C(N)=O)ccc2OB1O (relative stereo) [Example 49, 1-(trans-2-cyanocyclohexyl)-3-[(2-hydroxy-3-isopropyl-1,2-benzoxaborinin-6-yl)amino]pyrazole-4-carboxamide]"

# Further lines, the molecule ahead of its results:
row,Structure (SMILES),IC50 [nM]
1,"N#C[C@@H]1CCOC[C@H]1n1cc(C(N)=O)c(Nc2cc(F)c3c(c2)B(O)OC3)n1 (relative stereo) [Example 1, 1-[trans-4-cyanotetrahydro-2H-pyran-3-yl]-3-[(4-fluoro-1-hydroxy-3H-2,1-benzoxaborol-6-yl)amino]pyrazole-4-carboxamide]",10 to 50
2,"N#C[C@@H]1CCOC[C@H]1n1cc(C(N)=O)c(Nc2ccc3c(c2)OB(O)C=C3)n1 (relative stereo) [Example 2, 1-[trans-4-cyanotetrahydro-2H-pyran-3-yl]-3-[(2-hydroxy-1,2-benzoxaborinin-7-yl)amino]pyrazole-4-carboxamide]",> 50
3,"CC1=C(C)c2cc(Nc3nn([C@@H]4COCC[C@H]4C#N)cc3C(N)=O)ccc2OB1O (relative stereo) [Example 4, 1-(trans-4-cyanotetrahydro-2H-pyran-3-yl)-3-((2-hydroxy-3,4-dimethyl-2H-benzo[e][1,2]oxaborinin-6-yl)amino)-1H-pyrazole-4-carboxamide]",< 10
4,"CC1=Cc2cc(Nc3nn([C@@H]4COCC[C@H]4C#N)cc3C(N)=O)ccc2OB1O (relative stereo) [Example 5, 1-(trans-4-cyanotetrahydro-2H-pyran-3-yl)-3-((2-hydroxy-3-methyl-2H-benzo[e][1,2]oxaborinin-6-yl)amino)-1H-pyrazole-4-carboxamide]",< 10
5,"N#C[C@@H]1CCOC[C@H]1n1cc(C(N)=O)c(Nc2ccc3c(c2)CCOB3O)n1 (relative stereo) [Example 7, 1-(trans-4-cyanotetrahydro-2H-pyran-3-yl)-3-((1-hydroxy-3,4-dihydro-1H-benzo[c][1,2]oxaborinin-6-yl)amino)-1H-pyrazole-4-carboxamide]",< 10
6,"N#C[C@@H]1CCC[C@H]1n1cc(C(N)=O)c(Nc2ccc3c(c2)C=CB(O)O3)n1 (relative stereo) [Example 8, 1-(trans-2-cyanocyclopentyl)-3-[(2-hydroxy-1,2-benzoxaborinin-6-yl)amino]pyrazole-4-carboxamide]",< 10
7,"N#C[C@@H]1CCCC[C@H]1n1cc(C(N)=O)c(Nc2ccc3c(c2)B(O)OC3)n1 (relative stereo) [Example 9, 1-(trans-2-cyanocyclohexyl)-3-[(1-hydroxy-3H-2,1-benzoxaborol-6-yl)amino]pyrazole-4-carboxamide]",< 10
8,"N#C[C@@H]1CCC[C@H]1n1cc(C(N)=O)c(Nc2ccc3c(c2)B(O)OC3)n1 (relative stereo) [Example 10, 1-(trans-2-cyanocyclopentyl)-3-[(1-hydroxy-3H-2,1-benzoxaborol-6-yl)amino]pyrazole-4-carboxamide]",10 to 50
9,"N#C[C@@H]1CCCC[C@H]1n1cc(C(N)=O)c(Nc2ccc3c(c2)COB3O)n1 (relative stereo) [Example 11, 1-(trans-2-cyanocyclohexyl)-3-((1-hydroxy-1,3-dihydrobenzo[c][1,2]oxaborol-5-yl)amino)-1H-pyrazole-4-carboxamide]",< 10
10,"N#C[C@@H]1CCC[C@H]1n1cc(C(N)=O)c(Nc2ccc3c(c2)COB3O)n1 (relative stereo) [Example 12, 1-(trans-2-cyanocyclopentyl)-3-((1-hydroxy-1,3-dihydrobenzo[c][1,2]oxaborol-5-yl)amino)-1H-pyrazole-4-carboxamide]",< 10
11,"CC1=Cc2cc(Nc3nn([C@@H]4CCC[C@H]4C#N)cc3C(N)=O)cc(F)c2OB1O (relative stereo) [Example 15, 1-(trans-2-cyanocyclopentyl)-3-[(8-fluoro-2-hydroxy-3-methyl-1,2-benzoxaborinin-6-yl)amino]pyrazole-4-carboxamide]",< 10
12,"N#C[C@@H]1CCCC[C@H]1n1cc(C(N)=O)c(Nc2ccc3c(c2)C=CB(O)O3)n1 (relative stereo) [Example 18, 1-(trans-2-cyanocyclohexyl)-3-[(2-hydroxy-1,2-benzoxaborinin-6-yl)amino]pyrazole-4-carboxamide]",< 10
13,"CC(C)(C)C1=Cc2cc(Nc3nn([C@@H]4COCC[C@H]4C#N)cc3C(N)=O)ccc2OB1O (relative stereo) [Example 19, 3-[(3-tert-butyl-2-hydroxy-1,2-benzoxaborinin-6-yl)amino]-1-(trans-4-cyanotetrahydro-2H-pyran-3-yl)pyrazole-4-carboxamide]",< 10
14,"CC(C)(C)C1=Cc2cc(Nc3nn([C@@H]4CCC[C@H]4C#N)cc3C(N)=O)ccc2OB1O (relative stereo) [Example 20, 3-[(3-tert-butyl-2-hydroxy-1,2-benzoxaborinin-6-yl)amino]-1-(trans-2-cyanocyclopentyl)pyrazole-4-carboxamide]",10 to 50
